Measurements published in patent publication US10851069B2, “Compositions of crystallized hydrophobic compounds and methods of making and using same” (Massachusetts Institute of Technology, priority 2016, dated 2020).

What was measured:
C57BL/6 mice = assay: Anti-fibrotic screening of amorphous drug formulations in 500 μm alginate capsules, 2-week intraperitoneal implantation; format: in vivo; conditions: conclusion; alginate hydrogel, ceramic, glass, PDMS and polystyrene beads
Description: For screening of anti-fibrotic drug activity, amorphous drug formulations were encapsulated inside 500 μm alginate capsules. Broad-spectrum anti-inflammatory agents curcumin, dexamethasone, and rapamycin have been used for preventing fibrosis of various biomaterials, such as polymer PLGA and hydrogel alginate. A panel of lead drug candidates (e.g., compounds of Formulae I-X) including the traditional broad-spectrum anti-inflammatories as well as agents targeted to essential macrophage biology pathways (e.g., TNFα, NFκB, p110δ/PI3K, TGFβ, and CSF1R) were selected. […] SLG20 alginate hydrogel spheres with these lead drug candidates were prepared as amorphous formulations to investigate the effect of macrophage immunomodulation on foreign body response. Drugs were encapsulated in amorphous form prepared by first dissolving in an organic solvent (e.g., vehicle in FIGS. 7, 9) then by mixing with alginate aqueous solution. Efficacy in preventing fibrosis was assessed in C57BL/6 mice at 2-weeks post implantation into the intraperitoneal (IP) cavity. Drug-containing spheres (500 μl/animal) were then implanted into the intraperitoneal space of C57BL/6 mice for 14 days. After this period, spheres were harvested and studied for cellular deposition and fibrosis.
(§1) All animal protocols were approved by the MIT Committee on Animal Care, and all surgical procedures and post-operative care was supervised by MIT Division of Comparative Medicine veterinary staff. Immune-competent male non-diabetic or STZ-induced diabetic C57BL/6 mice (Jackson Laboratory, Bar Harbor, Me.) were anesthetized with 3% isoflurane in oxygen and had their abdomens shaved and sterilized using betadine and isopropanol. Preoperatively, all mice also received a 0.05 mg/kg dose of buprenorphine subcutaneously as a pre-surgical analgesic, along with 0.3 mL of 0.9% saline subcutaneously to prevent dehydration. A 0.5 mm incision was made along the midline of the abdomen and the peritoneal lining was exposed using blunt dissection. […]

[1] = test system: STZ-induced diabetic C57BL/6 mice; assay: Blood glucose monitoring after transplantation of encapsulated rat islets with or without drug; format: in vivo
Procedure: Immediately prior to encapsulation, the cultured islets were centrifuged at 1,400 rpm for 1 minute and washed with Ca-free Krebs-Henseleit (KH) Buffer (4.7 mM KCl, 25 mM HEPES, 1.2 mM KH2PO4, 1.2 mM MgSO4×7H2O, 135 mM NaCl, pH≈7.4, ≈290 mOsm). After washing, islets were centrifuged again and all supernatant was aspirated. The islet pellet was then re-suspended in a 2.0% solution of SLG20 alginate dissolved in 0.9% NaCl solution at an islet density of 1,000 islets per 1.0 ml alginate solution. Spheres were crosslinked using a BaCl2 gelling solution and their sizes were controlled using similar procedures as the empty spheres (described above). Immediately after crosslinking, the encapsulated islets were washed 4 times with HEPES buffer and 2 times with RPMI Medium 1640 with 10% HIFBS and cultured overnight at 37° C. for transplantation. As the islets had variable sizes (50-400 μm) and there was an inevitable loss of islets during the encapsulation process, the total number of encapsulated islets were recounted and converted into islet equivalents (IE, normalized to 150 μm size) based on a previously published method (Ricordi, C. et al. Islet isolation assessment in man and large animals. Acta 18 Diabetol. Lat. 27, 185195 (1990)) prior to transplantation.
as §1, with “dehydration.” for “dehydration. A 0.5 mm incision was made along the midline of the abdomen and the peritoneal lining was exposed using blunt dissection.”
Blood glucose levels were monitored three times a week following transplantation of islet-containing alginate capsules. […]

COc1ccc(COc2ccc(Cc3cnc(N)nc3N)cc2OC)cc1 [GW2580, 5-[[3-Methoxy-4-[(4-methoxyphenyl)methoxy]phenyl]methyl]-2,4-pyrimidinediamine]
efficacy in inhibiting fibrosis of implanted biomaterial (C57BL/6 mice): demonstrated efficacy in inhibiting fibrosis | improvement of normoglycemia duration over controls ([1]; amorphous): 2 fold | improvement of normoglycemia duration over controls ([1]; crystalline): approximately 13 fold | duration of maintained normoglycemia ([1]; crystalline, 0.5 mm alginate microspheres): over 1.25 years
